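These data come from cells grown in 96-well plates and exposed to compound for 48 hours at five concentrations. Abbreviation: GI50, concentration required for 50% inhibition of growth.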 The source made the active and inactive calls. No stated cut-off is given here; in the data, active = GI50 up to about 1.1 µM and inactive = higher.
Columns and labels:
Assay in all cases: NCI anticancer screen, dose series, 48 h
[1] = test system: SN12C
[2] = test system: ACHN
[3] = test system: HT-29
[4] = test system: NCI-H522
[5] = test system: NCI-H460
[6] = test system: COLO 205
[7] = test system: SK-MEL-2
[8] = test system: M14
[9] = test system: A549
[10] = test system: SF-268
[11] = test system: DU-145
[12] = test system: HCC 2998
[13] = test system: HCT-15
[14] = test system: UACC-62
[15] = test system: SF-295
[16] = test system: SR
[17] = test system: OVCAR-5
[18] = test system: MDA-MB-435
[19] = test system: MOLT-4
[20] = test system: UACC-257

SMILES | GI50 [1] | GI50 [2] | GI50 [3] | GI50 [4] | GI50 [5] | GI50 [6] | GI50 [7] | GI50 [8] | GI50 [9] | GI50 [10] | GI50 [11] | GI50 [12] | GI50 [13] [µM] | GI50 [14] | GI50 [15] | GI50 [16] | GI50 [17] | GI50 [18] | GI50 [19] | GI50 [20]
CN(C)c1ccc(/C=N/n2c(-c3ccccc3)nc3ccccc3c2=O)cc1 | 80.9 µM (inactive) | 18.5 µM (inactive) | 40 µM (inactive) | 49.3 µM (inactive) | 35.4 µM (inactive) | 48.5 µM (inactive) | 82.2 µM (inactive) | 79.6 µM (inactive) | 53.5 µM (inactive) | 44 µM (inactive) | > 100 µM (inactive) | > 100 µM (inactive) | 27.5 | 58.9 µM (inactive) | > 100 µM (inactive) | 14.1 µM (inactive) | > 100 µM (inactive) | 79.4 µM (inactive) | 34.4 µM (inactive) | > 100 µM (inactive)
Oc1c(Br)c(-c2ccccc2)nc2ccccc12 | 6.67 µM (inactive) | 35.8 µM (inactive) | > 60.4 µM (inactive) | > 10 µM (inactive) | 10 µM (inactive) | > 21.7 µM (inactive) | > 10 µM (inactive) | 47 µM (inactive) | 1.98 µM (inactive) | > 10 µM (inactive) | > 69.5 µM (inactive) | > 10 µM (inactive) | > 62.5 | 21.9 µM (inactive) | 8.75 µM (inactive) | 29.8 µM (inactive) | > 10 µM (inactive) | 43.3 µM (inactive) | 8.15 µM (inactive) | 36.7 µM (inactive)
COC1/C=C/C(C)C(C(C)C(OC)C(C)CCC(=O)C(C)C(C/C=C/N(C)C=O)OC)OC(=O)/C=C/C=C(\C)CC(OC)C(OC)C2=CC(=O)O[C@@H](C(C)C(OC)CC(OC)/C=C/C(C)C(O)C1)[C@H]2O (stereo not given in full) | 0.126 µM (active) | 0.0914 µM (active) | 0.0615 µM (active) | 0.119 µM (active) | 0.0759 µM (active) | 0.0721 µM (active) | 0.0276 µM (active) | 0.14 µM (active) | 0.15 µM (active) | 0.129 µM (active) | 0.373 µM (active) | 0.0716 µM (active) | 0.0479 | 0.137 µM (active) | 0.115 µM (active) | 0.0809 µM (active) | 0.163 µM (active) | 0.249 µM (active) | 0.105 µM (active) | 0.13 µM (active)
Cc1cc(NC(=O)C(=O)Cc2nc3ccccc3s2)ccc1Cl | > 100 µM (inactive) | > 100 µM (inactive) | > 100 µM (inactive) | > 100 µM (inactive) | > 100 µM (inactive) | > 100 µM (inactive) | > 100 µM (inactive) | > 100 µM (inactive) | > 100 µM (inactive) | > 100 µM (inactive) | > 100 µM (inactive) | > 100 µM (inactive) | > 100 | > 100 µM (inactive) | > 100 µM (inactive) | > 100 µM (inactive) | > 100 µM (inactive) | > 100 µM (inactive) | > 100 µM (inactive) | > 93.3 µM (inactive)
N#Cc1ccccc1NC(=O)C(O)C(O)C(O)C(O)C=O (stereo not given) | > 100 µM (inactive) | > 100 µM (inactive) | > 100 µM (inactive) | > 100 µM (inactive) | > 100 µM (inactive) | > 100 µM (inactive) | > 100 µM (inactive) | > 100 µM (inactive) | > 100 µM (inactive) | > 100 µM (inactive) | > 100 µM (inactive) | > 100 µM (inactive) | > 100 | > 100 µM (inactive) | > 100 µM (inactive) | > 100 µM (inactive) | > 100 µM (inactive) | > 100 µM (inactive) | > 100 µM (inactive) | > 100 µM (inactive)
O=C(O)CCCCCNC(=O)CCC(CN(CC(=O)OCc1ccccc1)CC(=O)OCc1ccccc1)N(CC(=O)OCc1ccccc1)CC(=O)OCc1ccccc1 (stereo not given) | 18.4 µM (inactive) | 18.1 µM (inactive) | 17.9 µM (inactive) | 19.2 µM (inactive) | 30.4 µM (inactive) | 16.7 µM (inactive) | 16 µM (inactive) | 17.5 µM (inactive) | 17.4 µM (inactive) | 18.7 µM (inactive) | 19.5 µM (inactive) | 15.2 µM (inactive) | 17.9 | 16.7 µM (inactive) | 17.3 µM (inactive) | 20.9 µM (inactive) | 18.2 µM (inactive) | 19.4 µM (inactive) | 15.2 µM (inactive) | 18.8 µM (inactive)
OC1CCCC1C(O)(C(F)(F)F)C(F)(F)F (stereo not given) | > 100 µM (inactive) | > 100 µM (inactive) | > 100 µM (inactive) | > 100 µM (inactive) | > 100 µM (inactive) | > 100 µM (inactive) | > 100 µM (inactive) | > 100 µM (inactive) | > 100 µM (inactive) | > 100 µM (inactive) | > 100 µM (inactive) | > 100 µM (inactive) | > 100 | > 100 µM (inactive) | > 100 µM (inactive) | > 100 µM (inactive) | > 100 µM (inactive) | > 100 µM (inactive) | > 100 µM (inactive) | > 100 µM (inactive)
Cc1c2ccc3ccccc3c2c[n+]2ccccc12 | 2.94 µM (inactive) | 56.5 µM (inactive) | 27.5 µM (inactive) | 3.41 µM (inactive) | 10.7 µM (inactive) | 2.82 µM (inactive) | 11.6 µM (inactive) | 15.8 µM (inactive) | 3.72 µM (inactive) | 1.36 µM (inactive) | 11.4 µM (inactive) | 4.92 µM (inactive) | 59.2 | 13.6 µM (inactive) | 5.89 µM (inactive) | 2.96 µM (inactive) | 61.9 µM (inactive) | 12.6 µM (inactive) | 4.66 µM (inactive) | 7.62 µM (inactive)
O=C(CCN1CC2CCC(CC2)C1)c1cccs1 | 18.1 µM (inactive) | 18.7 µM (inactive) | 24.5 µM (inactive) | 17.4 µM (inactive) | 18.7 µM (inactive) | 18.5 µM (inactive) | 17.3 µM (inactive) | 16.4 µM (inactive) | 23.9 µM (inactive) | 21.2 µM (inactive) | 17.6 µM (inactive) | 15.6 µM (inactive) | 20.4 | 17.7 µM (inactive) | > 100 µM (inactive) | 4.49 µM (inactive) | 16.4 µM (inactive) | 20.8 µM (inactive) | 3.32 µM (inactive) | 16.1 µM (inactive)
OCCCCCNc1c2ccccc2nc2ccccc12 | 2.54 µM (inactive) | 0.818 µM (active) | 1.44 µM (inactive) | 2.04 µM (inactive) | 1.01 µM (active) | 1.53 µM (inactive) | 2.62 µM (inactive) | 2.74 µM (inactive) | 2.65 µM (inactive) | 2.75 µM (inactive) | 3.02 µM (inactive) | 1.01 µM (active) | 3.57 | 1.8 µM (inactive) | 2.75 µM (inactive) | 1.37 µM (inactive) | 2.51 µM (inactive) | 2.68 µM (inactive) | 2.4 µM (inactive) | 2.02 µM (inactive)
CCCCCCCCCCCCCCCCC1=CC(=O)C=C(OC)C1=O | 44 µM (inactive) | > 100 µM (inactive) | > 100 µM (inactive) | > 100 µM (inactive) | 34.4 µM (inactive) | 55.6 µM (inactive) | > 100 µM (inactive) | > 100 µM (inactive) | 89.5 µM (inactive) | > 100 µM (inactive) | > 100 µM (inactive) | > 100 µM (inactive) | 66.8 | 34.7 µM (inactive) | > 100 µM (inactive) | 34.3 µM (inactive) | > 100 µM (inactive) | > 100 µM (inactive) | > 100 µM (inactive) | > 100 µM (inactive)
Nc1ccccc1CCCC(=O)O | > 100 µM (inactive) | > 100 µM (inactive) | > 100 µM (inactive) | > 100 µM (inactive) | > 100 µM (inactive) | > 100 µM (inactive) | > 100 µM (inactive) | > 100 µM (inactive) | > 100 µM (inactive) | > 100 µM (inactive) | > 100 µM (inactive) | > 100 µM (inactive) | > 100 | > 100 µM (inactive) | > 100 µM (inactive) | > 100 µM (inactive) | > 100 µM (inactive) | > 100 µM (inactive) | > 100 µM (inactive) | > 100 µM (inactive)
NC(CCCCP(=O)(O)O)C(=O)O (stereo not given) | > 100 µM (inactive) | > 100 µM (inactive) | > 100 µM (inactive) | 26.9 µM (inactive) | > 100 µM (inactive) | > 100 µM (inactive) | > 100 µM (inactive) | > 100 µM (inactive) | > 100 µM (inactive) | > 100 µM (inactive) | > 100 µM (inactive) | > 100 µM (inactive) | > 100 | > 100 µM (inactive) | > 100 µM (inactive) | > 100 µM (inactive) | > 100 µM (inactive) | > 100 µM (inactive) | > 100 µM (inactive) | > 100 µM (inactive)
CN(C)CCNC(=O)c1cc([N+](=O)[O-])cc2c1Oc1ccccc1O2 | 25.7 µM (inactive) | 6.46 µM (inactive) | 17.3 µM (inactive) | 21.7 µM (inactive) | 4.23 µM (inactive) | 13.7 µM (inactive) | 18.2 µM (inactive) | 31.5 µM (inactive) | 13.5 µM (inactive) | 21.6 µM (inactive) | 37.8 µM (inactive) | 3.79 µM (inactive) | > 10 | 11.9 µM (inactive) | 22 µM (inactive) | 11.7 µM (inactive) | 40.9 µM (inactive) | 39.7 µM (inactive) | 3.94 µM (inactive) | 29.4 µM (inactive)
